Values quoted from earlier work in US20040096420A1, “Compositions and methods for treating baldness” (priority 2000, published 2004).

Test system: genetic hair loss
Settings: dosages from 75 to 100 mg per day; Rushton and Ramsay, 1992; Rushton et al. 1991

For `CC(=O)S[C@@H]1CC2=CC(=O)CC[C@]2(C)[C@H]2CC[C@@]3(C)[C@@H](CC[C@@]34CCC(=O)O4)[C@H]12` [spironolactone], the “benefit in hair loss” value is given as “some benefit”.
